Measurements published in patent publication US20240228411A1, “Functionalization of Lightly Branched Olefin Oligomers” (ExxonMobil Chemical Patents Inc., priority 2021, published 2024).
Counter-ions that a name gives are not always drawn.

Columns and labels:
Format in all cases: physicochemical
Wetting time, skein test = conditions: average of three measurements; for Wetting time (1 g/L): 1 g/L surfactant; for Wetting time (2 g/L): 2 g/L surfactant
Procedure: Wetting time was measured by heating an aqueous mixture of the surfactant in an oven for 15-20 minutes at 50-60° C. and homogenizing regularly. 1+/−0.1 g or 2+/−0.1 g of the surfactant was weighed into a 1 L volumetric flask, and distilled water was added by portions of 200-300 mL and agitating regularly. After the resulting foam disappeared, the volume was adjusted to the 1 liter level. Skein yams were removed from their packaging and hung for a period of time before measurement. The surfactant solution was poured into a graduated cylinder (1 L), and foam was removed with a small nitrogen or air flow. The skein was folded one time. A hook was fastened with its anchor at one end of the folded skein, and at the opposite end, the skein was cut through. The cut skein was then compacted. The skein was held with the anchor and the weight above the 1-liter graduated cylinder containing the surfactant solution. A stopwatch was activated just as the skein was released into the surfactant solution. The stopwatch was stopped once the skein started to sink. The average of three measurements using fresh surfactant solution and a new skein each time is reported. Wetting results are specified in Table 5 below.

[1] = Critical micelle concentration in water, Kruss K100 tensiometer
Procedure: Critical micelle concentrations in water were measured using an A Kruss Laboratory K100 tensiometer. CMC values were determined using the K100 instrument's fully automated measurement method, as described further in the K100 instrument's operating manual.

[2] = Solubility in water at 25° C., visual observation; conditions: 2-3 hours magnetic stirring
Procedure: Solubility measurements were conducted in water at 25° C. Solubility was determined through visual observation after 2-3 hours of magnetic stirring of surfactant solutions having variable concentrations.

[3] = Calcium tolerance (hard water tolerance), surfactant remaining in filtrate by HPLC-ELSD; conditions: 25° C., 450 ppm surfactant, 420 ppm cations (3:1 Ca2+:Mg2+), overnight
Procedure: Calcium tolerance was measured at 25° C. using the following procedure. A surfactant solution containing 450 ppm of alcohol sulfate surfactant and 420 ppm cations (3:1 Ca^2+:Mg^2+) was prepared and allowed to stand overnight. Crystals formed during this time. The supernatant liquid was removed and passed through a 0.22 μm filter to provide a filtrate. The filtrate was then analyzed for surfactant residue. Analysis of the surfactant and salt residue was performed using an Agilent 1100 HPLC combined with SEDEX 75 evaporative light scattering detector (ELSD) using the run conditions specified in Table 4 below. Peak height was utilized to analyze surfactant concentration. Some samples were repeated in triplicate. Calcium tolerance results are specified in Table 5 below.

Compound | Wetting time (1 g/L) (Wetting time, skein test) | Wetting time (2 g/L) (Wetting time, skein test) | CMC [1] | Solubility at 25° C. [2] | Calcium tolerance (ppm surfactant remaining) [3]
CCCC(C)CCCC(C)CCCOS(=O)(=O)O (centres unmarked) [Isotridecyl Sulfate-2, C# = 13, 4,8-dimethylundecan-1-sulfate] | 6.1 s | 2.3 s | 0.00129 g/g |  | 
CCCCCCCCCCCCCOS(=O)(=O)[O-].[Na+] [Sodium n-Tridecyl Sulfate] | 6.3 s | 3.1 s | 0.001 g/g | <0.5% Wt. % | 11.2 ppm
